Reference: patent publication US7468384B2, “Microbicidal composition” (Rohm and Haas Company, priority 2004, dated 2008)

Tests used:
Type in all cases: cell-based
[1] = test system: Candida albicans (C. albicans—ATCC 10231); assay: Synergy test, microtiter plate high resolution MIC assay, yeast; settings: C. albicans 10231, PDB; for Qa: BIT concentration giving end point (MIC); for Qa (BIT at end point, MIC): alone where Qb = 0
In short: (§1)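 Values derive from Kull synergy index (Qa/QA + Qb/QB, ppm MIC endpoints, alone vs in mixture). Endpoints from high-resolution microtiter MICs spanning 2–10,000 ppm; bacterium ~5×10^6/mL in TSB or M9GY, yeast and mold 5×10^5/mL in PDB.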

[2] = test system: Escherichia coli (E. coli—ATCC #8739); assay: Synergy test, microtiter plate high resolution MIC assay, bacterium; settings: E. coli 8739, M9GY; for Qa: BIT concentration giving end point (MIC); for Qa (BIT at end point, MIC): alone where Qb = 0
In short: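 High-resolution MICs were found by adding microbicide to one microtitre column and making ten-fold dilutions with an automated liquid handler, giving endpoints from 2 ppm to 10,000 ppm active ingredient. The MIC is the lowest concentration that prevents growth. E. coli 8739, at roughly 5×10^6 cells per mL, grew in glucose/yeast-extract-supplemented minimal salt medium (M9GY). Values above one indicate antagonism.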

[3] = test system: Pseudomonas aeruginosa (P. aeruginosa—ATCC #15442); assay: as above; parameters: key to SI (calculated synergy index) / SI (synergy index): SI = Qa/QA + Qb/QB (mixture vs. alone end-point concentrations); settings: P. aeruginosa 15442, M9GY; for Qa: BIT concentration giving end point (MIC); for Qa (BIT at end point, MIC): alone where Qb = 0
In short: as §1

[4] = test system: Aspergillus niger (A. niger—ATCC 16404); assay: Synergy test, microtiter plate high resolution MIC assay, mold; parameters: key to SI (calculated synergy index) / SI (synergy index): SI = Qa/QA + Qb/QB (mixture vs. alone end-point concentrations); settings: A. niger 16404, PDB; for Qa: BIT concentration giving end point (MIC); for Qa (BIT at end point, MIC): alone where Qb = 0
In short: as §1

[5] = alone or mixed with benzyl alcohol, 48 hours
[6] = alone or mixed with caprylyl glycol, 24 hours
[7] = alone or mixed with glutaraldehyde, 24 hours
[8] = Table 24, BIT with Cis-1-(3-chloroallyl)-3,5,7-triaza-1-azoniaadamantane chloride, 24 hours
[9] = Table 25, BIT with sodium dehydroacetic acid, 24 hours
[10] = synergy index BIT + benzyl alcohol, 48 hours
[11] = synergy index BIT + caprylyl glycol, 24 hours
[12] = synergy index BIT + glutaraldehyde, 24 hours
[13] = alone or mixed with Imidalozidinyl urea, 48 hours
[14] = alone or mixed with diazolidinyl urea, 48 hours
[15] = Table 26, BIT with sodium benzoate, 24 hours
[16] = synergy index BIT + Imidalozidinyl urea, 48 hours
[17] = synergy index BIT + diazolidinyl urea, 48 hours

## O=c1[nH]sc2ccccc12 [BIT, 1,2-benzisothiazolin-3-one]
[1]; alone or mixed with Imidalozidinyl urea, 24 hours
  Qa: 30 ppm
[1]; [5]
  Qa: 30 ppm
[1]; [6]
  Qa: 30 ppm
[1]; alone or mixed with diazolidinyl urea, 24 hours
  Qa: 30 ppm
[1]; [7]
  Qa: 30 ppm
[1]; [8]
  Qa (BIT at end point, MIC): 20 ppm
[1]; Table 24, 24 hours
  SI (synergy index): 1.00
[1]; [9]
  Qa (BIT at end point, MIC): 30 ppm
[1]; Table 25, 24 hours
  SI (synergy index): 1.00
[1]; Table 26, BIT with sodium benzoate, 48 hours
  Qa (BIT at end point, MIC): 30 ppm
[1]; Table 26, 48 hours
  SI (synergy index): 1.00
[1]; synergy index BIT + Imidalozidinyl urea, 24 hours
  SI: 1.00
[1]; [10]
  SI: 1.00
[1]; [11]
  SI: 1.00
[1]; synergy index BIT + diazolidinyl urea, 24 hours
  SI: 1.00
[1]; [12]
  SI: 1.00
[2]; [13]
  Qa: 7.5 ppm
[2]; alone or mixed with benzyl alcohol, 24 hours
  Qa: 7.5 ppm
[2]; [6]
  Qa: 7.5 ppm
[2]; [14]
  Qa: 8 ppm
[2]; [7]
  Qa: 10 ppm
[2]; Table 24, BIT with Cis-1-(3-chloroallyl)-3,5,7-triaza-1-azoniaadamantane chloride, 48 hours
  Qa (BIT at end point, MIC): 10 ppm
[2]; Table 24, 48 hours
  SI (synergy index): 1.00
[2]; [9]
  Qa (BIT at end point, MIC): 7.5 ppm
[2]; Table 25, 24 hours
  SI (synergy index): 1.00
[2]; [15]
  Qa (BIT at end point, MIC): 7.5 ppm
[2]; Table 26, 24 hours
  SI (synergy index): 1.00
[2]; [16]
  SI: 1.00
[2]; synergy index BIT + benzyl alcohol, 24 hours
  SI: 1.00
[2]; [11]
  SI: 1.00
[2]; [17]
  SI: 1.00
[2]; [12]
  SI: 1.00
[3]; alone or mixed with 2,2′-dithiobis(N-methylbenzamide), 48 hours
  Qa: 100 ppm
[3]; [13]
  Qa: 100 ppm
[3]; [5]
  Qa: 100 ppm
[3]; [6]
  Qa: 100 ppm
[3]; alone or mixed with chlorphenesin, 72 hours
  Qa: 100 ppm
[3]; [14]
  Qa: 100 ppm
[3]; alone or mixed with ethylparaben, 48 hours
  Qa: 100 ppm
[3]; alone or mixed with glutaraldehyde, 48 hours
  Qa: 60 ppm
[3]; alone or mixed with methylparaben, 48 hours
  Qa: 100 ppm
[3]; alone or mixed with phenoxyethanol, 48 hours
  Qa: 100 ppm
[3]; Table 8, 48 hours
  SI (calculated synergy index): 1.00
[3]; Table 8, 48 hours, B = Benzalkonium chloride
  Qa: end-point activity (MIC) of BIT in the mixture (BIT alone, QA, where Qb = 0): 100 ppm
[3]; Table 9, 48 hours
  SI (calculated synergy index): 1.00
[3]; Table 9, 48 hours, B = Benzethonium chloride
  Qa: end-point activity (MIC) of BIT in the mixture (BIT alone, QA, where Qb = 0): 100 ppm
[3]; Table 21, BIT with Linoleamidopropyl PG-dimonium chloride phosphate, 48 hours
  Qa (BIT at end point, MIC): 100 ppm
[3]; Table 21, 48 hours
  SI (synergy index): 1.00
[3]; Table 22, BIT with Cocamidopropyl PG-dimonium chloride phosphate, 72 hours
  Qa (BIT at end point, MIC): 100 ppm
[3]; Table 22, 72 hours
  SI (synergy index): 1.00
[3]; Table 23, BIT with propylparaben, 24 hours
  Qa (BIT at end point, MIC): 80 ppm
[3]; Table 23, 24 hours
  SI (synergy index): 1.33
[3]; [8]
  Qa (BIT at end point, MIC): 60 ppm
[3]; Table 24, 24 hours
  SI (synergy index): 1.00
[3]; [9]
  Qa (BIT at end point, MIC): 60 ppm
[3]; Table 25, 24 hours
  SI (synergy index): 1.00
[3]; [15]
  Qa (BIT at end point, MIC): 60 ppm
[3]; Table 26, 24 hours
  SI (synergy index): 1.00
[3]; Table 27, BIT with Sodium hydroxymethylglycinate, 24 hours
  Qa (BIT at end point, MIC): 60 ppm
[3]; Table 27, 24 hours
  SI (synergy index): 1.00
[3]; Table 28, BIT with zinc pyrithione, 48 hours
  Qa (BIT at end point, MIC): 100 ppm
[3]; Table 28, 48 hours
  SI (synergy index): 1.00
[3]; synergy index BIT + 2,2′-dithiobis(N-methylbenzamide), 48 hours
  SI: 1.00
[3]; [16]
  SI: 1.00
[3]; [10]
  SI: 1.00
[3]; [11]
  SI: 1.00
[3]; synergy index BIT + chlorphenesin, 72 hours
  SI: 1.00
[3]; [17]
  SI: 1.00
[3]; synergy index BIT + ethylparaben, 48 hours
  SI: 1.00
[3]; synergy index BIT + glutaraldehyde, 48 hours
  SI: 1.00
[3]; synergy index BIT + methylparaben, 48 hours
  SI: 1.00
[3]; synergy index BIT + phenoxyethanol, 48 hours
  SI: 1.00
[4]; alone or mixed with 2,2′-dithiobis(N-methylbenzamide), 3 days
  Qa: 20 ppm
[4]; alone or mixed with EDTA, 4 days
  Qa: 20 ppm
[4]; alone or mixed with Imidalozidinyl urea, 3 days
  Qa: 20 ppm
[4]; alone or mixed with benzyl alcohol, 1 week
  Qa: 50 ppm
[4]; alone or mixed with caprylyl glycol, 1 week
  Qa: 50 ppm
[4]; alone or mixed with chlorphenesin, 1 week
  Qa: 50 ppm
[4]; alone or mixed with diazolidinyl urea, 3 days
  Qa: 20 ppm
[4]; alone or mixed with ethylparaben, 3 days
  Qa: 20 ppm
[4]; alone or mixed with glutaraldehyde, 3 days
  Qa: 20 ppm
[4]; alone or mixed with methylparaben, 4 days
  Qa: 30 ppm
[4]; alone or mixed with phenoxyethanol, 3 days
  Qa: 20 ppm
[4]; Table 8, 1 week
  SI (calculated synergy index): 1.00
[4]; Table 8, 1 week, B = Benzalkonium chloride
  Qa: end-point activity (MIC) of BIT in the mixture (BIT alone, QA, where Qb = 0): 30 ppm
[4]; Table 9, 4 days
  SI (calculated synergy index): 1.00
[4]; Table 9, 4 days, B = Benzethonium chloride
  Qa: end-point activity (MIC) of BIT in the mixture (BIT alone, QA, where Qb = 0): 30 ppm
[4]; Table 21, 4 days
  SI (synergy index): 1.00
[4]; Table 21, BIT with Linoleamidopropyl PG-dimonium chloride phosphate, 4 days
  Qa (BIT at end point, MIC): 30 ppm
[4]; Table 22, 1 week
  SI (synergy index): 1.00
[4]; Table 22, BIT with Cocamidopropyl PG-dimonium chloride phosphate, 1 week
  Qa (BIT at end point, MIC): 30 ppm
[4]; Table 23, 3 days
  SI (synergy index): 1.00
[4]; Table 23, BIT with propylparaben, 3 days
  Qa (BIT at end point, MIC): 20 ppm
[4]; Table 24, 3 days
  SI (synergy index): 1.00
[4]; Table 24, BIT with Cis-1-(3-chloroallyl)-3,5,7-triaza-1-azoniaadamantane chloride, 3 days
  Qa (BIT at end point, MIC): 30 ppm
[4]; Table 25, 1 week
  SI (synergy index): 1.00
[4]; Table 25, BIT with sodium dehydroacetic acid, 1 week
  Qa (BIT at end point, MIC): 30 ppm
[4]; Table 26, 1 week
  SI (synergy index): 1.00
[4]; Table 26, BIT with sodium benzoate, 1 week
  Qa (BIT at end point, MIC): 30 ppm
[4]; Table 27, 3 days
  SI (synergy index): 1.00
[4]; Table 27, BIT with Sodium hydroxymethylglycinate, 3 days
  Qa (BIT at end point, MIC): 20 ppm
[4]; Table 28, 1 week
  SI (synergy index): 1.00
[4]; Table 28, BIT with zinc pyrithione, 1 week
  Qa (BIT at end point, MIC): 30 ppm
[4]; synergy index BIT + 2,2′-dithiobis(N-methylbenzamide), 3 days
  SI: 1.00
[4]; synergy index BIT + EDTA, 4 days
  SI: 1.00
[4]; synergy index BIT + Imidalozidinyl urea, 3 days
  SI: 1.00
[4]; synergy index BIT + benzyl alcohol, 1 week
  SI: 1.00
[4]; synergy index BIT + caprylyl glycol, 1 week
  SI: 1.00
[4]; synergy index BIT + chlorphenesin, 1 week
  SI: 1.00
[4]; synergy index BIT + diazolidinyl urea, 3 days
  SI: 1.00
[4]; synergy index BIT + ethylparaben, 3 days
  SI: 1.00
[4]; synergy index BIT + glutaraldehyde, 3 days
  SI: 1.00
[4]; synergy index BIT + methylparaben, 4 days
  SI: 1.00
[4]; synergy index BIT + phenoxyethanol, 3 days
  SI: 1.00
